Measured values taken from US20150080475A1, “Memantine Protects Inflammation-Related Degeneration of Dopamine Neurons Through Inhibition of Over-Activated Microglia and Release of Neurotrophic Factors From Astroglia” (priority 2009, published 2015).

How the values were obtained:
PGE2 = PGE2 ELISA after LPS; assay type: cell-based
Description: The production of TNF-α was measured with a commercial ELISA kit from R&D Systems. The PGE2 release was measured with a commercial ELISA kit from Cayman Chemical Company.
(§1) Neuron-glia cultures were pretreated for 30 min with MMT (3 μM) or vehicle before LPS stimulation. […] Production of superoxide (30 min after LPS) and iROS (2 h after LPS) was decreased by MMT treatment (FIGS. 6A and 6B). […] The production of PGE2 in cultures pretreated with 3 and 10 μM MMT decreased by 23% and 27% respectively (FIG. 6E).

GDNF = test: RT-PCR of GDNF mRNA in astroglial cultures; assay type: cell-based, rat; settings: memantine 10 μM, time-dependent, 0 min to 24 h
Description: GDNF mediated memantine-induced neurotrophic effects. Rat primary astroglia were exposed to 10 μM memantine for various time points ranging from 0 minute to 24 h. (FIG. 5A) Total RNA was extracted. […] (FIG. 5B) The ratio of densitometry values of GDNF and β-actin was analyzed and normalized to 0 min value. (FIG. 5C) Total protein of astroglial cells was extracted. Western blot analyses were performed with the antibody to GDNF. GAPDH was used as loading control. (FIG. 5D) The ratio of densitometry values of GDNF and GAPDH was analyzed and normalized to 0 min value. Values were expressed as mean±S.E.M. of three independent experiments. *p<0.05, **p<0.01, ***p<0.001, Bonferroni t-test vs 0 min for FIG. 5B and FIG. 5D; (FIG. 5E) Neuron-glia cultures were treated with either control goat IgG (isotype Ab), or goat anti-GDNF, combined with memantine (10 μM) treatment. DA uptake capacity was measured 7 days later. Results were expressed as a percentage of the vehicle-treated control cultures and represented mean±S.E.M. of three independent experiments performed in triplicate. *p<0.05, **p<0.01, ***p<0.001, Bonferroni's test vs control; #p<0.05, Bonferroni t-test vs memantine treated cultures.
Mixed-glia cultures were first prepared from brains of 1-day-old Fisher 344 rat pups, as described previously. […]

DA neurons [1] = test: MPP+-induced reduction in DA uptake in neuron-enriched cultures; assay type: cell-based; settings: MMT 1, 3, or 10 μM pre-treatment
Description: Mesencephalic neuron-glia cultures were seeded (5×10^5/well) in 24 well plates precoated with poly D-lysine. Thirty-six hours postseeding, 5-10 μM cytosine β-D-arabinofuranoside was added to the culture. After 2 days, the cytosine β-D-arabinofuranoside was removed and replaced with fresh media. Neuron-enriched cultures are 98% pure, as indicated by ICC staining with OX-42 and GFAP antibodies. Neuron-enriched cultures were treated 7 days post-seeding. For microglia add-back cultures, the microglia were plated on top of the neuron-enriched culture at 6 days postseeding, resulting in the addition of either 10% (500 μL of 1×10^5) or 20% (500 μL of 2×10^5) microglia. […]
Cells were incubated in Krebs-Ringer buffer (16 mM NaH2PO4, 1.2 mM MgSO4, 1.3 mM EDTA, […], for 21 min at 37° C. with 1 μM [^3H] DA. Nonspecific uptake was blocked for DA with 10 μM mazindole. After incubation, cells were washed three times with 1 mL/well of ice-cold Krebs-Ringer buffer. Cells were then lysed with 0.5 mL/well of 1 N NaOH and mixed with 15 mL of scintillation fluid. Radioactivity was measured on a scintillation counter, where specific [^3H] DA uptake was calculated by subtracting the mazindole.
To determine whether the neuroprotective effect of MMT was dependent on the presence of glial cells, the effects of MMT on the neuron-enriched cultures were determined. […]

DA neurons [2] = test: LPS-induced dopaminergic neurotoxicity in microglia-depleted neuron-glia cultures; assay type: cell-based; settings: microglia depleted by LME to <1%, LPS 7 days
Description: To evaluate the influence of various kinds of glia contribute to effect of MMT on LPS-induced dopaminergic neurotoxicity, microglia-depleted Neuron-/glia Cultures were performed.

nitric oxide = test: Nitrite assay (Griess reagent) after LPS; assay type: cell-based; settings: 24 and 48 h after LPS stimulation
Description: As an indicator of nitric oxide production, the amount of nitrite accumulated in culture supernatant was determined with a colorimetric assay using Griess reagent [1% sulfanilamide, 2.5% H3PO4, 0.1% N-(1-naphthyl)ethylenediamine dihydrochloride]. Briefly, 50 μL of Griess reagent and 50 μL of culture supernatant were incubated in the dark at room temperature for 10 min. After incubation, the absorbance at 540 nm was determined with the Spectra Max Plus microplate spectrophotometer. The sample nitrite concentration was determined from a sodium nitrite standard curve.
as §1

In the case of CC12CC3CC(C)(C1)CC(N)(C3)C2.Cl [MMT, 1-amino-3,5-dimethyladamantane hydrochloride], the “decrease of PGE2 production” value (PGE2; pretreated with 3 μM MMT) is reported as 23%, the “decrease of PGE2 production” value (PGE2; pretreated with 10 μM MMT) is reported as 27% and the “GDNF mRNA levels” value (GDNF) is reported as “significant main effects”. The “protection against MPP+-induced reduction in DA uptake” value (DA neurons [1]) was “failed to protect”, the “protective effect against LPS-induced dopaminergic neurotoxicity” value (DA neurons [2]) was “not found in depletion of microglia” and the “release of NO (measured as nitrite)” value (nitric oxide) was “reduced”.
